Experimental data as given in paper PMC9552247 (Addiction biology, 2022).

Target: human DAT (CHO-DAT) (Homo sapiens, UniProt Q01959)
Conditions: labelled compound, 60 nM, pH 7.4, 37°C

Sequence of human DAT (CHO-DAT) (Q01959 whole entry): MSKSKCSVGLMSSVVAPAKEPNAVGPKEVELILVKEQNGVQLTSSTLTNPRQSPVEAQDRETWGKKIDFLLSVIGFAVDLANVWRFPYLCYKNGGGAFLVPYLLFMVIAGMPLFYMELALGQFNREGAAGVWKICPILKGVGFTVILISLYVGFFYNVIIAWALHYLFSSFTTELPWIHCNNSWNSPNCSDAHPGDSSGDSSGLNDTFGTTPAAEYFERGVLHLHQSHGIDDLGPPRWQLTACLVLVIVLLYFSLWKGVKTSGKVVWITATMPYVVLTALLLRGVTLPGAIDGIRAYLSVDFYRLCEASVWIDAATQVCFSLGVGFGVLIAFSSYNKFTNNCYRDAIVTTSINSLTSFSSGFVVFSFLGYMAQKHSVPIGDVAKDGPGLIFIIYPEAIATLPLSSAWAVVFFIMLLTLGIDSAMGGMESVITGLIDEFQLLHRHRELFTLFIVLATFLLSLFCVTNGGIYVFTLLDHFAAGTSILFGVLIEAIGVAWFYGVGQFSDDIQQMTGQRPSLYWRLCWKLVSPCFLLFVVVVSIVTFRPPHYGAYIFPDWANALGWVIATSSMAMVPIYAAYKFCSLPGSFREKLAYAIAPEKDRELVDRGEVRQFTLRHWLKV

NCCc1ccc(O)c(O)c1 [dopamine]
[3H]-dopamine uptake in CHO-DAT cells: cells expressing the DA transporter (CHO-DAT) using tritiated dopamine
